Test results: PMC467089, “Click estradiol dimers with novel aromatic bridging units: synthesis and anticancer evaluation” (Journal of Enzyme Inhibition and Medicinal Chemistry, 2024)

Experiments:
[1] = system: A549 (lung adenocarcinoma); test: MTS cytotoxicity assay, A549; type: cell-based, human; conditions: Homo sapiens, A549; MTS assay, 72-h incubation, mean ± SD of 3 independent experiments; read-out: IC50 cytotoxic activity A549
Experimental: (§1) The p53 deficient variant, HCT116p53−/−, was purchased from Horizon Discovery (Cambridge, UK). The daunorubicin-resistant CCRF-CEM cell line CEM-DNR bulk and paclitaxel-resistant K562-TAX sublines were developed in-house by exposing parental cell lines to escalating concentrations of daunorubicin and paclitaxel, respectively. Cells were maintained in the recommended culture medium (Sigma-Aldrich, St. Louis, MO) supplemented with 10% foetal calf serum, 100 U/mL penicillin, and 100 μg/mL streptomycin. The HUVEC line was obtained from PromoCell (Heidelberg, Germany). The cells were cultured in endothelial cell growth medium with SupplementMix for endothelial cells (PromoCell, Heidelberg, Germany). The incubation conditions were a humidified atmosphere of 95% air and 5% CO2 at 37 °C[10]. Cells were seeded in 384-well plates and after overnight incubation treated with compounds. All tested compounds were dissolved in 100% DMSO, and fourfold serial dilutions were performed using an Echo550 liquid handler (Labcyte, San Jose, CA). The experiments were performed in technical duplicates and three biological replicates. Cells were incubated with compounds for 72 h and thereafter 5 μL of MTS reagent was added to each well.

[2] = system: CEM-DNR (daunorubicin resistant variant of CCRF-CEM); test: MTS cytotoxicity assay, CEM-DNR; type: cell-based, human; conditions: Homo sapiens, CEM-DNR; MTS assay, 72-h incubation, mean ± SD of 3 independent experiments; read-out: IC50 cytotoxic activity CEM-DNR
Experimental: as §1

[3] = MTS cytotoxicity assay, HUVEC; type: cell-based; conditions: human, HUVEC cells (umbilical vein endothelial cells); MTS assay, 72-h incubation, mean ± SD of 3 independent experiments; read-out: IC50 cytotoxic activity HUVEC
Experimental: as §1

[4] = MTS cytotoxicity assay, BJ; type: cell-based; conditions: human, BJ cells (non-tumour skin fibroblasts); MTS assay, 72-h incubation, mean ± SD of 3 independent experiments; read-out: IC50 cytotoxic activity BJ
Experimental: as §1

[5] = system: K562-TAX (paclitaxel-resistant variant of K562); test: MTS cytotoxicity assay, K562-TAX; type: cell-based, human; conditions: Homo sapiens, K562-Tax; MTS assay, 72-h incubation, mean ± SD of 3 independent experiments; read-out: IC50 cytotoxic activity K562-TAX
Experimental: as §1

[6] = system: K562 (chronic myelogenous leukaemia); test: MTS cytotoxicity assay, K562; type: cell-based; conditions: Homo sapiens, K562; MTS assay, 72-h incubation, mean ± SD of 3 independent experiments; read-out: IC50 cytotoxic activity K562
Experimental: as §1

[7] = MTS cytotoxicity assay, MRC-5; type: cell-based; conditions: human, MRC-5 cells (non-tumour fibroblasts); MTS assay, 72-h incubation, mean ± SD of 3 independent experiments; read-out: IC50 cytotoxic activity MRC-5
Experimental: as §1

[8] = system: CCRF-CEM lymphoblasts; test: BrDU incorporation analysis (DNA synthesis); type: cell-based, human
Experimental: (§2) To further characterise the mode of action of studied compounds, we analysed the cell cycle profile of CCRF-CEM cells treated with compounds for 24 h. […] The compounds ED1–ED9 and ED12 induced arrest in G2/M phase of the cell cycle (Figure 2(A)). To differentiate between G2 block and mitotic arrest, we used phospho-histone H3 (Ser10) mitotic marker (Figure 2(B)). […] Generally, dimers induced a dose-dependent increase of sub G1 cell population with fragmented DNA except for ED2 and ED4 (Figure 2(C)). […] To assess the proliferation of treated cells, they were subjected to 5-bromo-2-deoxyuridine (BrDU) labelling. […] Analogously, changes in 5-bromouridine (BrU) incorporation were examined to monitor overall RNA synthesis.
Thirty minutes before harvesting, cells were pulse-labelled with 10 μM BrDU. After overnight fixation in ice-cold 70% ethanol, cells were resuspended in 2 M HCl for 30 min at room temperature (RT), then washed with 0.1 M Na2B4O7 and blocked with PBS containing 0.5% Tween-20 and 1% BSA. BrDU incorporation was analysed using anti-BrdU antibody clone MoBu-1 (Exbio, Vestec, Czech Republic) and a secondary anti-mouse-FITC antibody (Sigma-Aldrich, St. Louis, MO). Cells were washed with PBS and stained with 0.1 mg/mL propidium iodide and 0.5 mg/mL RNase A for 1 h at RT and analysed by flow cytometry using a 488 nm single beam laser (FACSCalibur, Becton Dickinson, Franklin Lakes, NJ). The percentage of cells with incorporated BrDU was analysed using CellQuest software.

[9] = system: CCRF-CEM lymphoblasts; test: Cell cycle analysis by flow cytometry (propidium iodide); type: cell-based, human
Experimental: as §2
(§3) Treated CCRF-CEM cells were harvested, washed with ice-cold phosphate-buffered saline (PBS), fixed in cold 70% ethanol and stored at −20 °C. Prior to analysis, fixed cells were permeabilised with 0.25% Triton X-100 in PBS for 15 min, blocked in 1% bovine serum, and incubated with anti-phospho-Histone H3 (Ser^10) antibody (Merck Millipore, Burlington, MA). Subsequently, the cells were treated with 50 μg/mL RNAse, stained with propidium iodide and analysed by FACSCalibur (Becton Dickinson, Franklin Lakes, NJ) flow cytometer at 488 nm. Cell cycle distribution (G1, S, and G2/M) was analysed using ModFitLT software (Verity, Topsham, ME), and reflects only viable population prior to the fixing procedure. Particles with lower propidium iodide content than G1 phase cells were classified as non-viable cells with fragmented DNA. Flow cytometry data visualisation was performed using OriginPro 2018b (b9.5.5.409) software (OriginLab Corporation, Northampton, MA)[10].

[10] = system: CCRF-CEM lymphoblasts; test: BrU incorporation analysis (RNA synthesis); type: cell-based, human
Experimental: as §2
Prior to the trypsinisation, cells were treated with 1 mM BrU for 30 min. Subsequently, the cells were fixed in 1% paraformaldehyde with 0.05% of NP-40 for 15 min at RT and stored overnight at 4 °C. Fixed cells were washed with 1% glycine in PBS and stained with primary anti-BrdU antibody clone MoBu-1 crossreacting with BrU (Exbio, Vestec, Czech Republic) for 30 min at RT, washed with PBS and labelled with secondary anti-mouse-FITC antibody (Sigma-Aldrich, St. Louis, MO). Following 1-h incubation in 1% paraformaldehyde containing 0.05% NP-40, cells were stained with propidium iodide (0.1 mg/mL) and treated with RNase A (0.5 mg/mL) for 1 h at RT. The percentage of BrU positive cells was quantified using CellQuest software.

[11] = system: U2OS (osteosarcoma); test: MTS cytotoxicity assay, U2OS; type: cell-based, human; conditions: Homo sapiens, U2OS; MTS assay, 72-h incubation, mean ± SD of 3 independent experiments; read-out: IC50 cytotoxic activity U2OS
Experimental: as §1

[12] = system: HCT116p53−/− (p53 gene null variant of HCT116); test: MTS cytotoxicity assay, HCT116p53−/−; type: cell-based; conditions: Homo sapiens, HCT-116; MTS assay, 72-h incubation, mean ± SD of 3 independent experiments; read-out: IC50 cytotoxic activity HCT116p53-
Experimental: as §1

[13] = system: CCRF-CEM (childhood T-cell acute lymphoblastic leukaemia); test: MTS cytotoxicity assay, CCRF-CEM; type: cell-based; conditions: Homo sapiens, MTS assay, 72-h incubation, mean ± SD of 3 independent experiments, read-out: IC50 cytotoxic activity CCRF-CEM
Experimental: as §1

[14] = system: CCRF-CEM lymphoblasts; test: Phospho-histone H3 (Ser10) mitotic marker, flow cytometry; type: cell-based, human
Experimental: as §2, §3

[15] = system: HCT116 (colorectal adenocarcinoma); test: MTS cytotoxicity assay, HCT116; type: cell-based; conditions: Homo sapiens, HCT-116; MTS assay, 72-h incubation, mean ± SD of 3 independent experiments; read-out: IC50 cytotoxic activity HCT116
Experimental: as §1

[16] = target: T1, porcine brain tubulin (Sus scrofa, UniProt P02550+P02554); test: Tubulin polymerisation assay; type: biochemical; conditions: 10 μmol/L, Vmax relative to DMSO
T1 construct: purchased Cytoskeleton, Denver, CO; host or cells: porcine brain (tissue-purified)
Experimental: Tubulin polymerisation assay kit (Cytoskeleton, Denver, CO) was used according to the manufacturer’s instructions. Polymerisation of porcine brain tubulin (>99% purity) was measured using an EnVision Multilabel Plate Reader (PerkinElmer, Waltham, MA) at 37 °C, in the presence of either 10 μmol/L test compounds or DMSO. Maximum polymerisation velocity (Vmax) was calculated from the polymerisation curves. Data visualisation was performed in OriginPro 2018b (b9.5.5.409) software (OriginLab Corporation, Northampton, MA)[10].

T1 sequence (P02550 whole entry): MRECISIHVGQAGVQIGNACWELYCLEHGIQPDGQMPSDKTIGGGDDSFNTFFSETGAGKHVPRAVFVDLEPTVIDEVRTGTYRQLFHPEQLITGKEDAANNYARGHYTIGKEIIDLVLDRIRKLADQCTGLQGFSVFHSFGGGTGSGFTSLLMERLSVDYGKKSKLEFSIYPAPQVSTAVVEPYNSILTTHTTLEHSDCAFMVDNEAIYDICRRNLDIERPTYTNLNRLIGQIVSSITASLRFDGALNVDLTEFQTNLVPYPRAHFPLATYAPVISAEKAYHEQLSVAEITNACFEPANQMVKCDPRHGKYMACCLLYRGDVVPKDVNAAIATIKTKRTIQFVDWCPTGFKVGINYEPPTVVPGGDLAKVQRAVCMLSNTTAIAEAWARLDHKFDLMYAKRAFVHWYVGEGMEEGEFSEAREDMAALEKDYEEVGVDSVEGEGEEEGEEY
T1 sequence (P02554 whole entry): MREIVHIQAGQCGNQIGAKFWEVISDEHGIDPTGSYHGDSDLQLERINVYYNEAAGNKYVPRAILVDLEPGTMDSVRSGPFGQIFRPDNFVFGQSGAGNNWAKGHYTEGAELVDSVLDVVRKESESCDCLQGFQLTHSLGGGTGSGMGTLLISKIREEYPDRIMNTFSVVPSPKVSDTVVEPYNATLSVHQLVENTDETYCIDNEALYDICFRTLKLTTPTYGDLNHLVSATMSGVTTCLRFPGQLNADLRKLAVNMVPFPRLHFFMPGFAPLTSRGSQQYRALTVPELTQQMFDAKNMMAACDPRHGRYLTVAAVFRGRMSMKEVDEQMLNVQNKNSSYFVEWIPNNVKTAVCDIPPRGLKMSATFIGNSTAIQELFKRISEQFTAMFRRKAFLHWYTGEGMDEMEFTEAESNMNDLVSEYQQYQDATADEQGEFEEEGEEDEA

Question: Which IC50 [1] does the source give for `COc1cc2c(cc1O)CC[C@@H]1[C@@H]2CC[C@]2(C)[C@@H](O)CC[C@@H]12` [ME, 2-methoxyestradiol, reference compound] here?
Answer: Its IC50 is 2.26 ± 0.15 µM.

Question: What about the IC50 [2] of the same molecule?
Answer: The IC50 was 1.61 ± 0.2 µM.

Question: And the IC50 at 72 h [3]?
Answer: The IC50 at 72 h was 1.07 ± 0.18 µM.

Question: And the IC50 at 72 h [4]?
Answer: The IC50 at 72 h was greater than 50 µM.

Question: And the IC50 [5]?
Answer: Its IC50 is 1.32 ± 0.2 µM.

Question: What about the IC50 [6] of the same molecule?
Answer: The IC50 was 1.43 ± 0.39 µM.

Question: What about the IC50 at 72 h [7] of the same molecule?
Answer: Its IC50 at 72 h is greater than 50 µM.

Question: And the “BrDU, % of positive cells” value ([8]; 1×IC50, 24 h)?
Answer: The value was 9.31%.

Question: What about the “BrDU, % of positive cells” value ([8]; 5×IC50, 24 h) of the same molecule?
Answer: The value was 9.49%.

Question: And the “<G1 (sub-G1, fragmented DNA), % of positive cells” value ([9]; 1×IC50, 24 h)?
Answer: Its value is 23.97%.

Question: And the “>G2/M (polyploidy), % of positive cells” value ([9]; 1×IC50, 24 h)?
Answer: The value was 6.2%.

Question: What about the “G0/G1, % of positive cells” value ([9]; 1×IC50, 24 h) of the same molecule?
Answer: The value was 31.50%.

Question: And the “G2/M, % of positive cells” value ([9]; 1×IC50, 24 h)?
Answer: Its value is 28.85%.

Question: And the “S, % of positive cells” value ([9]; 1×IC50, 24 h)?
Answer: Its value is 39.65%.

Question: And the “<G1 (sub-G1, fragmented DNA), % of positive cells” value ([9]; 5×IC50, 24 h)?
Answer: The value was 65.32%.

Question: And the “>G2/M (polyploidy), % of positive cells” value ([9]; 5×IC50, 24 h)?
Answer: Its value is 10.4%.

Question: What about the “G0/G1, % of positive cells” value ([9]; 5×IC50, 24 h) of the same molecule?
Answer: Its value is 1.19%.

Question: What about the “G2/M, % of positive cells” value ([9]; 5×IC50, 24 h) of the same molecule?
Answer: Its value is 84.03%.

Question: What about the “S, % of positive cells” value ([9]; 5×IC50, 24 h) of the same molecule?
Answer: The value was 14.77%.

Question: And the “BrU, % of positive cells” value ([10]; 1×IC50, 24 h)?
Answer: Its value is 23.60%.

Question: And the “BrU, % of positive cells” value ([10]; 5×IC50, 24 h)?
Answer: Its value is 46.10%.

Question: What about the IC50 [11] of the same molecule?
Answer: The IC50 was 2.13 ± 0.3 µM.

Question: And the IC50 [12]?
Answer: Its IC50 is 1.99 ± 0.41 µM.

Question: And the IC50 [13]?
Answer: The IC50 was 1.61 ± 0.097 µM.

Question: And the “pH3Ser10, % of positive cells” value ([14]; 1×IC50, 24 h)?
Answer: The value was 17.74%.

Question: What about the “pH3Ser10, % of positive cells” value ([14]; 5×IC50, 24 h) of the same molecule?
Answer: Its value is 67.40%.

Question: What about the IC50 [15] of the same molecule?
Answer: Its IC50 is 1.58 ± 0.25 µM.

Question: For `C#C[C@]1(O)CC[C@H]2[C@@H]3CCc4cc(O)ccc4[C@H]3CC[C@@]21C` [EE, 17α-ethinylestradiol, reference compound], which IC50 [1] is on record?
Answer: The IC50 was 31.5 ± 4.16 µM.

Question: And the IC50 [2]?
Answer: Its IC50 is 23 ± 4.7 µM.

Question: What about the IC50 at 72 h [4] of the same molecule?
Answer: Its IC50 at 72 h is greater than 50 µM.

Question: And the IC50 [5]?
Answer: The IC50 was 15.6 ± 6.25 µM.

Question: And the IC50 [6]?
Answer: The IC50 was 8.72 ± 2.17 µM.

Question: And the IC50 at 72 h [7]?
Answer: Its IC50 at 72 h is greater than 50 µM.

Question: What about the IC50 [11] of the same molecule?
Answer: The IC50 was 22.4 ± 5.65 µM.

Question: What about the IC50 [12] of the same molecule?
Answer: The IC50 was 33.6 ± 11.9 µM.

Question: What about the IC50 [15] of the same molecule?
Answer: The IC50 was 30 ± 6.89 µM.

Question: Which “inhibitory activity against tubulin polymerisation (in words)” value [16] does the source give for `Cc1cc(C)c(Cn2cc([C@]3(O)CC[C@H]4[C@@H]5CCc6cc(O)ccc6[C@H]5CC[C@@]43C)nn2)c(C)c1Cn1cc([C@]2(O)CC[C@H]3[C@@H]4CCc5cc(O)ccc5[C@H]4CC[C@@]32C)nn1` [ED10, 17,17′-[(2,4,6-Trimethyl-1,3-phenylene)bis(methylene-1H-1,2,3-triazole-1,4-diyl)]di[estra-1,3,5(10)-triene-3,17β-diol]] here?
Answer: Its value is “inactive”.
